Assay type in all cases: in vivo, mouse
The subject of assay [1] is MRGPRB4+ neurons (hM3DREADD). The experiment in a line: Conditioned place preference (CPP) assay, biased design, pharmacogenetic activation with CNO. The procedure:
(§1) For behavioral experiments, juvenile (1-month-old) mice neonatally injected with Cre-dependent AAV8 viruses expressing hM3DREADD were subjected to a conditioned place preference assay (CPP13) using a biased design, by an investigator blind to genotype. All mice were tested for their initial chamber preference before conditioning, as depicted in FIG. 4C, lower panel).
(§2) The conditioned place preference (CPP) protocol was based on previous studies. For testing a positive valence effect of activation of MrgprB4^+ neurons, a biased compartment assignment procedure in which activation of the neurons is tested for its ability was used to increase the time spent in the initially non-preferred chamber. The CPP apparatus consisted of a rectangular chamber divided into three compartments (300×150×150 mm per compartment), connected via an opening (50×50 mm) in each delimiting wall. The two side (test) compartments were designed to have different visual and tactile cues, by having distinct walls (horizontal or vertical alternating white and black stripes) and distinct floors (different shapes of floor grids with big or small square holes). In addition a 1-inch-diameter polyvinylchloride (PVC) pipe coupler (two schedule 40 wall thickness), either threaded or smooth, was placed in the centre of each side compartment to enrich for tactile cues. The centre compartment was a neutral plastic enclosure (see FIG. 4B). This design was chosen so as to promote a compartment preference assignment for each mouse. A video tracking system (Noldus Ethovision) recorded all animal movements.
(§3) Because our hypothesis is based on the social reward mediated by social contact in juvenile mice, the mice used were approximately 1-month old. After weaning the mice were maintained in social groups and left undisturbed until the start of the CPP assay. The paradigm was completed in 6 days. On the day before pre-testing the mice were socially isolated in their home cage. On day 1 of the procedure each mouse was placed in the central compartment and allowed to explore the entire apparatus freely for 30 min (pre-test). After the pre-test the initial preference of each mouse for a given side compartment was recorded. […] Conditioning was initiated on day 2 and encompassed four sessions performed on four consecutive days. In the first conditioning session mice were injected i.p. with CNO (5 mg kg) (or saline of an equivalent volume for some control mice) and placed for 1 h (based on the observation that CNO effects peak between 45 and 50 min after administration) in the initially non-preferred (I.N.P.) compartment. On day 3, during the second conditioning session, all mice were injected with saline and confined for 1 hr in the opposite (that is, initially preferred, I.P.) compartment. (The second conditioning session was performed the following day as CNO effects last for 9 hrs.) On day 4 and day 5 the first and second conditioning sessions were repeated, respectively. The time between the i.p. injections of CNO or saline and the placement of the mice in the compartment was between 5-10 min, which is compatible with the time that is needed for CNO to start having an effect. On day 6, the mice were tested for their side compartment preference by placing them in the centre compartment and allowing them to explore the entire apparatus freely for 30 min (post test). All sessions were conducted blind to the genotype/injected virus of each mouse. For the conditioned place aversion (CPA assay) the mice remained group-housed until the day before the pre-test. After the pre-test, on the first day of the conditioning session the mice were injected with saline and confined in the I.N.P. compartment. On the second day of conditioning the mice were injected with CNO (except for the saline control mice) and placed in the I.P. compartment. On the third and fourth day of conditioning the first and second sessions of conditioning were repeated, respectively. […]

Assay [2] deals with MRGPRD+ neurons (hM3DREADD). The assay is described as above. Conditions: MrgprD-Cre/hM3DREADD mice conditioned with CNO, n=8. The procedure:
as §1, §2, §3

Assay [3] deals with MRGPRD+ neurons (hM3DREADD). The experiment in a line: Conditioned place aversion (CPA) assay with CNO. Conditions: CNO and DREADD, separate experiments, data not shown. The text has this:
Because our hypothesis is based on the social reward mediated by social contact in juvenile mice, the mice used were approximately 1-month old. After weaning the mice were maintained in social groups and left undisturbed until the start of the CPP assay. The paradigm was completed in 6 days. On the day before pre-testing the mice were socially isolated in their home cage. On day 1 of the procedure each mouse was placed in the central compartment and allowed to explore the entire apparatus freely for 30 min (pre-test). After the pre-test the initial preference of each mouse for a given side compartment was recorded. […] Conditioning was initiated on day 2 and encompassed four sessions performed on four consecutive days. In the first conditioning session mice were injected i.p. with CNO (5 mg kg) (or saline of an equivalent volume for some control mice) and placed for 1 h (based on the observation that CNO effects peak between 45 and 50 min after administration) in the initially non-preferred (I.N.P.) compartment. On day 3, during the second conditioning session, all mice were injected with saline and confined for 1 hr in the opposite (that is, initially preferred, I.P.) compartment. (The second conditioning session was performed the following day as CNO effects last for 9 hrs.) On day 4 and day 5 the first and second conditioning sessions were repeated, respectively. […]

Consider `C[N+]1([O-])CCN(C2=Nc3cc(Cl)ccc3Nc3ccccc32)CC1` [CNO, Clozapine-N-oxide], for which the “difference of means of difference scores, experimental versus pooled controls” value in assay [1] (95% confidence interval 62.9-339.3, Cohen's d=0.872) was 201±70. The “difference score (time after conditioning minus before conditioning), saline-paired chamber” value in assay [1] (MrgprB4::hM3DREADD mice, n=15) was -340 ± 74 s. In assay [1] (MrgprB4::hM3DREADD mice, n=15, p<0.01), the “difference score (time after conditioning minus before conditioning), CNO-paired (I.N.P.) chamber” value was determined as 253 ± 66 s. For the same compound, the “increase in the time spent in the I.N.P. chamber paired with CNO exposure” value in assay [1] (Mrgprb4-hM3DREADD mice, CNO 5 mg/kg i.p., pre- versus post-training, n=15, P<0.01) is listed as 190±95%. The “change in the difference score for the I.N.P. chamber” value in assay [1] (control mice expressing hrGFP in MrgprB4+ (n=9) or MrgprD+ (n=10) neurons, conditioned with CNO) was “No significant change”. Also, the “mean difference score of the experimental animals in the I.N.P. chamber” value in assay [1] (experimental group (FIG. 4e, j)) is 253±65.8. Moreover, in assay [1] (experimental group, pre vs. post, p<0.001), the “increase in preference score for the I.N.P. chamber (time in CNO/I.N.P. chamber divided by total time in the two test chambers)” value is listed as 195±86%. Moreover, the “conditioned place preference (CPP)” value in assay [2] is on record as “neither CPP”. Besides, the “conditioned place aversion (CPA)” value in assay [3] is “nor (in separate experiments) conditioned place aversion”.

(Values after patent US20140178305A1, “IDENTIFICATION AND USE OF ANXIOLYTIC COMPOUNDS” (CALIFORNIA INSTITUTE OF TECHNOLOGY, priority 2012, published 2014).)
